Experiments:
[1] = tested on: ENST1 (TaENST1-4A); design: species or system wheat cv. CM82036; conditions: in vivo
[2] = tested on: Arabidopsis root hair; assay: Root hair assay (apoptosis-like programmed cell death); assay type: cell-based, Arabidopsis thaliana; conditions: 65 μM SA, one day post treatment
Protocol: The root hair assay was conducted as previously described (Kacprzyk et al. 2014). Briefly, five days old seedling were treated with 65 μM SA solution and incubated at 22° C. in constant light until scoring. The Apostosis-Like Program Cell Death (AL-PCD) was assessed by scoring root hair viability with a fluorescein diacetate (FDA) staining and examination under the microscope of the emission of the fluorescein when excited at the wavelength 485 nm. Root hairs negative for FDA staining were examined further and scored as programmed cell death (PCD) when having a condensed cell content and protoplast retracted away from the cell wall (as opposed to necrotic cells which have no retracted cytoplasm and therefore no distinguishable morphology compared to living cells under the light microscope). The percentage for each category was calculated as a percentage of the total number of root hair scored (about 100) averaged over at least three replicates.

| Compound | ENST1 expression in tissues treated with the toxin [1] | ENST1 induction by DON [1] [fold] | programmed cell death (PCD) in root hairs after SA treatment [2] |
| --- | --- | --- | --- |
| CC1=C[C@H]2O[C@@H]3[C@H](O)C[C@](C)([C@@]2(CO)[C@H](O)C1=O)[C@]31CO1 [DON, deoxynivalenol] | high expression | 43 | – |
| O=C(O)c1ccccc1O [SA, salicylic acid] | – | – | significant inductions of PCD |

Source: patent US10221427B2 (priority 2014, dated 2019)
